In patent US10196390B2, “TYK2 inhibitors and uses thereof” (Nimbus Lakshmi, Inc., priority 2014, dated 2019) one finds Ki data, which are given here for 25 compounds.

One experiment has as its target TYK2 (Homo sapiens (Human), UniProt P29597). As to the kind of experiment: Tyk2 activity inhibition assay (radioactive kinase assay / Caliper assay). In kind it is biochemical. The method in brief:
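Radiometric format: TYK2 with peptide substrate (20 μM) and 33P-ATP at 10 μM in HEPES pH 7.5, 1% DMSO, 120 min at room temp, P81 paper capture. Caliper mobility-shift format: TYK2 9.75 nM, peptide 30 at 3 uM, ATP 16 uM (also 1 mM), 25 min at 28° C.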

A further experiment has as its target JAK2 (Homo sapiens (Human), UniProt O60674). As to the kind of experiment: JAK2 activity inhibition assay (radioactive kinase assay / Caliper assay). Particulars: read-out: JAK2 Ki. In kind it is biochemical. The method in brief: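 Mobility-shift (Caliper) read-out of phosphorylated peptide substrate. Compound diluted in 25 mM HEPES pH 7.5, 0.01% Brij-35, 0.01% Triton, 0.5 mM EGTA; enzyme added, then peptide plus ATP in 10 mM MgCl2. Incubated 25 min at 28° C, stopped with EDTA buffer.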

Where only a bound is given, the exact number is not on record here.

Chain of JAK2 (O60674 whole entry): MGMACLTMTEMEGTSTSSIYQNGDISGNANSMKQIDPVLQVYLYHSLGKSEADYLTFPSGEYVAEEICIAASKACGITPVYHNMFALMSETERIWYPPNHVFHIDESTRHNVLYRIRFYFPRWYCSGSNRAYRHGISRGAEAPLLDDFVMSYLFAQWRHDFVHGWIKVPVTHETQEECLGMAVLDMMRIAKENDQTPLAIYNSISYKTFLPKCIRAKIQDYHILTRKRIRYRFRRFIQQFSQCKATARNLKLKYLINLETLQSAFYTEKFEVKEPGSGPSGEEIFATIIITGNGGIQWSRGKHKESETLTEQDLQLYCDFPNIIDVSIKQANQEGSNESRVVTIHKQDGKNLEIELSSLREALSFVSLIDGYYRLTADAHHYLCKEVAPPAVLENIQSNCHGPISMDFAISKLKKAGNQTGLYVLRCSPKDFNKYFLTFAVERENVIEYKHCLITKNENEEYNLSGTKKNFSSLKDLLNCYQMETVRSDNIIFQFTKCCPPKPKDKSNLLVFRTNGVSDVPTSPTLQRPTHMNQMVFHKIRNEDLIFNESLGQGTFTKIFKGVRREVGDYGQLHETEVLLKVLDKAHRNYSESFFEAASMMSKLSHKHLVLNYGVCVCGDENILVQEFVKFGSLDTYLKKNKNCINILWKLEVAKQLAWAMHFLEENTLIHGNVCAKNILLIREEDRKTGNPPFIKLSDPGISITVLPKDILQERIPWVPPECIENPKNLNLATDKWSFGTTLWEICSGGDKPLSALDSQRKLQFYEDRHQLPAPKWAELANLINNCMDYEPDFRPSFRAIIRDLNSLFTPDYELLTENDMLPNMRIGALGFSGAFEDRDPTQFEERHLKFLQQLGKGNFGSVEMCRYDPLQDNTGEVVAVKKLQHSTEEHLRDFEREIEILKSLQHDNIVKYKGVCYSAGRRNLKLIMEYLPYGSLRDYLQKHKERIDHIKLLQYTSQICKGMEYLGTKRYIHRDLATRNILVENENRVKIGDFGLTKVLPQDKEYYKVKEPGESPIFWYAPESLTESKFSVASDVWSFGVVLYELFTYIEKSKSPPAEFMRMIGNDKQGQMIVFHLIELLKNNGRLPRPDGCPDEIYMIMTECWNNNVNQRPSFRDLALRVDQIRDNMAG
Chain of TYK2 (P29597 whole entry): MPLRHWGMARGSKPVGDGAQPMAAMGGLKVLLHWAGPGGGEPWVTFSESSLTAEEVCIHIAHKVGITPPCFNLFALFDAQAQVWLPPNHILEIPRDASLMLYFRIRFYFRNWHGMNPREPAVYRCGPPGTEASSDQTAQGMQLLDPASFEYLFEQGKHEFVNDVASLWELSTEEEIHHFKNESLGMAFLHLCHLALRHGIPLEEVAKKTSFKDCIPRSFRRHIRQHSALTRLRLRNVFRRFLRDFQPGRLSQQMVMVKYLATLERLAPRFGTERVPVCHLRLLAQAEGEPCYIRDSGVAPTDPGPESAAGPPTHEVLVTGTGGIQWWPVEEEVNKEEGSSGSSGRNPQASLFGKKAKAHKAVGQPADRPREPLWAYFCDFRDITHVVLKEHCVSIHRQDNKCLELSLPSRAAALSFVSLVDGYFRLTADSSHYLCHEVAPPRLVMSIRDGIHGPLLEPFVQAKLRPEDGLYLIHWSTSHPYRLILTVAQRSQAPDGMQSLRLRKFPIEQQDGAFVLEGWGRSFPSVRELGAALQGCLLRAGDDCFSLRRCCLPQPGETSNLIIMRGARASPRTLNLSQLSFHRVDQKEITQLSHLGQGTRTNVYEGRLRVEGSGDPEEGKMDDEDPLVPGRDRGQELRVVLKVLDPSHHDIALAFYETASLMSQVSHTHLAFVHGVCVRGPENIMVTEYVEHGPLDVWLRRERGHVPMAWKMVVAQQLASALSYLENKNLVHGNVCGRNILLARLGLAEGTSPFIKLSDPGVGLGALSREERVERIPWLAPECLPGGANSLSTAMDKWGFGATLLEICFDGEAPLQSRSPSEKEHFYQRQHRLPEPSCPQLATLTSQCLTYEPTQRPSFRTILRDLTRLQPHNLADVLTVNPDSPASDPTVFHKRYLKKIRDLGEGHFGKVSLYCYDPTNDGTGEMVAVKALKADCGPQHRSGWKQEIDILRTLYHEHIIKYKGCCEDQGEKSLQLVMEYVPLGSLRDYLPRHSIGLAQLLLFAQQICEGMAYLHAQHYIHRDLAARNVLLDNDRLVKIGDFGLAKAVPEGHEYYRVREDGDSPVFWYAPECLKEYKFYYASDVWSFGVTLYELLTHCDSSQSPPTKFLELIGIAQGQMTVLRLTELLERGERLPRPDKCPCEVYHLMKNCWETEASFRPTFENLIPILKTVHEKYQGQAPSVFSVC

For `CC(C(=O)N1CCCCC1)c1ccc(Nc2nc(-c3c(F)cccc3F)nc3c2C(=O)NC3)cc1` (centres unmarked) [Compound I-198, 2-(2,6-difluorophenyl)-4-((4-(1-oxo-1-(piperidin-1-yl)propan-2-yl)phenyl)amino)-6,7-dihydro-5H-pyrrolo[3,4-d]pyrimidin-5-one], the Ki on TYK2 was less than 10 nM; at JAK2, 100 to 1000 nM.
The like results for `CCNC(=O)Cc1ccc(Nc2cc(-c3c(F)cccc3Cl)nc3c2C(=O)NC3)nc1` [Compound I-199, 2-(6-((2-(2-chloro-6-fluorophenyl)-5-oxo-6,7-dihydro-5H-pyrrolo[3,4-b]pyridin-4-yl)amino)pyridin-3-yl)-N-ethylacetamide] were, in that order, less than 10 nM and 10 to 100 nM.
The like results for `COC(=O)Cc1ccc(Nc2cc(-c3c(F)cccc3Cl)nc3c2C(=O)NC3)nc1` [Compound I-200, methyl 2-(6-((2-(2-chloro-6-fluorophenyl)-5-oxo-6,7-dihydro-5H-pyrrolo[3,4-b]pyridin-4-yl)amino)pyridin-3-yl)acetate] were, in that order, less than 10 nM and 10 to 100 nM.
Consider `COC(=O)C1COCCN1C(=O)Cc1ccc(Nc2nc(-c3c(F)cccc3F)nc3c2C(=O)NC3)cc1` (centres unmarked) [Compound I-201, methyl 4-(2-(4-((2-(2,6-difluorophenyl)-5-oxo-6,7-dihydro-5H-pyrrolo[3,4-d]pyrimidin-4-yl)amino)phenyl)acetyl)morpholine-3-carboxylate], for which the Ki at TYK2 is less than 10 nM; at JAK2 it was 100 to 1000 nM.
The corresponding values for `O=C1NCc2nc(-c3c(F)cccc3F)nc(Nc3ccc(CC(=O)N4CCOCC4C(=O)O)cc3)c21` (centres unmarked) [Compound I-202, 4-(2-(4-((2-(2,6-difluorophenyl)-5-oxo-6,7-dihydro-5H-pyrrolo-[3,4-d]pyrimidin-4-yl)amino)phenyl)acetyl)morpholine-3-carboxylic Acid] are less than 10 nM and 100 to 1000 nM.
The like results for `C=C(C(=O)NCC)c1ccc(Nc2nc(-c3c(F)cccc3F)nc3c2C(=O)NC3)cc1` [Compound I-203, 2-(4-((2-(2,6-difluorophenyl)-5-oxo-6,7-dihydro-5H-pyrrolo[3,4-d]pyrimidin-4-yl)amino)phenyl)-N-ethylacrylamide] were, in that order, 10 to 100 nM and 100 to 1000 nM.
The like results for `O=C1NCc2nc(-c3c(F)cccc3Cl)cc(Nc3ccc(N4CCCC4)cn3)c21` [Compound I-204, 2-(2-chloro-6-fluorophenyl)-4-((5-(pyrrolidin-1-yl)pyridin-2-yl)amino)-6,7-dihydro-5H-pyrrolo[3,4-b]pyridin-5-one] were, in that order, less than 10 nM and greater than 1000 nM.
On to `CCNC(=O)Cc1ccc(Nc2nc(-c3c(F)cncc3F)nc3c2C(=O)NC3)cc1` [Compound I-208, 2-(4-((2-(3,5-difluoropyridin-4-yl)-5-oxo-6,7-dihydro-5H-pyrrolo[3,4-d]pyrimidin-4-yl)amino)phenyl)-N-ethylacetamide], for which the Ki at TYK2 was 100 to 1000 nM; on JAK2, greater than 1000 nM.
The corresponding values for `CN1CCN(C)[C@@](C)(c2ccc(Nc3nc(-c4c(F)cccc4F)nc4c3C(=O)NC4)cc2)C1=O` [Compound I-211, (S)-2-(2,6-difluorophenyl)-4-((4-(1,2,4-trimethyl-3-oxopiperazin-2-yl)phenyl)amino)-6,7-dihydro-5H-pyrrolo[3,4-d]pyrimidin-5-one] are less than 10 nM and 10 to 100 nM.
The like results for `CC1(C)CC(c2ccc(Nc3nc(-c4c(F)cccc4F)nc4c3C(=O)NC4)cc2)C(=O)N1` (centres unmarked) [Compound I-213, 2-(2,6-difluorophenyl)-4-((4-(5,5-dimethyl-2-oxopyrrolidin-3-yl)phenyl)amino)-6,7-dihydro-5H-pyrrolo[3,4-d]pyrimidin-5-one] were, in that order, less than 10 nM and 100 to 1000 nM.
The corresponding values for `CN1CCNC(C)(c2ccc(Nc3nc(-c4c(F)cccc4F)nc4c3C(=O)NC4)cc2)C1=O` (centres unmarked) [Compound I-215, 2-(2,6-difluorophenyl)-4-((4-(2,4-dimethyl-3-oxopiperazin-2-yl)phenyl)amino)-6,7-dihydro-5H-pyrrolo[3,4-d]pyrimidin-5-one] are less than 10 nM and 10 to 100 nM.
As to `CN1CCN[C@](C)(c2ccc(Nc3nc(-c4c(F)cccc4F)nc4c3C(=O)NC4)cc2)C1=O` [Compound I-216, (R)-2-(2,6-difluorophenyl)-4-((4-(2,4-dimethyl-3-oxopiperazin-2-yl)phenyl)amino)-6,7-dihydro-5H-pyrrolo[3,4-d]pyrimidin-5-one], the inhibition constant (Ki) at TYK2 was less than 10 nM; at JAK2, 100 to 1000 nM.
The like results for `CN1CCN[C@@](C)(c2ccc(Nc3nc(-c4c(F)cccc4F)nc4c3C(=O)NC4)cc2)C1=O` [Compound I-217, (S)-2-(2,6-difluorophenyl)-4-((4-(2,4-dimethyl-3-oxopiperazin-2-yl)phenyl)amino)-6,7-dihydro-5H-pyrrolo[3,4-d]pyrimidin-5-one] were, in that order, less than 10 nM and 10 to 100 nM.
For the compound `CC1(C)C[C@@H](c2ccc(Nc3nc(-c4c(F)cccc4F)nc4c3C(=O)NC4)cc2)C(=O)N1` [Compound I-218, (S)-2-(2,6-difluorophenyl)-4-((4-(5,5-dimethyl-2-oxopyrrolidin-3-yl)phenyl)amino)-6,7-dihydro-5H-pyrrolo[3,4-d]pyrimidin-5-one], the Ki is less than 10 nM on TYK2 and 100 to 1000 nM at JAK2.
Regarding `CC1(C)C[C@H](c2ccc(Nc3nc(-c4c(F)cccc4F)nc4c3C(=O)NC4)cc2)C(=O)N1` [Compound I-219, (R)-2-(2,6-difluorophenyl)-4-((4-(5,5-dimethyl-2-oxopyrrolidin-3-yl)phenyl)amino)-6,7-dihydro-5H-pyrrolo[3,4-d]pyrimidin-5-one], the Ki on TYK2 is less than 10 nM; on JAK2 it was 10 to 100 nM.
With `CN1C(=O)C(C)(c2ccc(Nc3nc(-c4c(F)cccc4F)nc4c3C(=O)NC4)cc2)CC1(C)C` (centres unmarked) [Compound I-220, 2-(2,6-difluorophenyl)-4-((4-(1,3,5,5-tetramethyl-2-oxo-pyrrolidin-3-yl)phenyl)amino)-6,7-dihydro-5H-pyrrolo[3,4-d]pyrimidin-5-one], the Ki was less than 10 nM at TYK2 and 10 to 100 nM on JAK2.
As to `CN1C(=O)[C@](C)(c2ccc(Nc3nc(-c4c(F)cccc4F)nc4c3C(=O)NC4)cc2)CC1(C)C` [Compound I-221, (S)-2-(2,6-difluorophenyl)-4-((4-(1,3,5,5-tetramethyl-2-oxopyrrolidin-3-yl)phenyl)amino)-6,7-dihydro-5H-pyrrolo[3,4-d]pyrimidin-5-one], the values for the Ki at TYK2 and at JAK2 were less than 10 nM and 10 to 100 nM, respectively.
The like results for `CN1C(=O)[C@@](C)(c2ccc(Nc3nc(-c4c(F)cccc4F)nc4c3C(=O)NC4)cc2)CC1(C)C` [Compound I-222, (R)-2-(2,6-difluorophenyl)-4-((4-(1,3,5,5-tetramethyl-2-oxopyrrolidin-3-yl)phenyl)amino)-6,7-dihydro-5H-pyrrolo[3,4-d]pyrimidin-5-one] were, in that order, less than 10 nM and 10 to 100 nM.
For the compound `CN1CCNC(C)(c2ccc(Nc3cc(-c4c(F)cccc4F)nc4c3C(=O)NC4)nc2)C1=O` (centres unmarked) [Compound I-223, 2-(2,6-difluorophenyl)-4-((5-(2,4-dimethyl-3-oxopiperazin-2-yl)pyridin-2-yl)amino)-6,7-dihydro-5H-pyrrolo[3,4-b]pyridin-5-one], the Ki at TYK2 and on JAK2 was less than 10 nM each time.
`CN1CCN[C@](C)(c2ccc(Nc3cc(-c4c(F)cccc4F)nc4c3C(=O)NC4)nc2)C1=O` [Compound I-224, (R)-2-(2,6-difluorophenyl)-4-((5-(2,4-dimethyl-3-oxopiperazin-2-yl)pyridin-2-yl)amino)-6,7-dihydro-5H-pyrrolo[3,4-b]pyridin-5-one]: the Ki at TYK2 and on JAK2 was less than 10 nM each time.
For `CN1CCN[C@@](C)(c2ccc(Nc3cc(-c4c(F)cccc4F)nc4c3C(=O)NC4)nc2)C1=O` [Compound I-225, (S)-2-(2,6-difluorophenyl)-4-((5-(2,4-dimethyl-3-oxopiperazin-2-yl)pyridin-2-yl)amino)-6,7-dihydro-5H-pyrrolo[3,4-b]pyridin-5-one], the Ki at TYK2 and on JAK2 was less than 10 nM in each case.
Regarding `O=C(NCC1CC1)c1ccc(Nc2cc(-c3c(F)cccc3F)nc3c2C(=O)NC3)nc1` [Compound I-226, N-(cyclopropylmethyl)-6-((2-(2,6-difluorophenyl)-5-oxo-6,7-dihydro-5H-pyrrolo[3,4-b]pyridin-4-yl)amino)nicotinamide], the Ki on TYK2 was less than 10 nM; at JAK2, 10 to 100 nM.
The corresponding values for `COc1ccc(Nc2cc(-c3c(F)cccc3F)nc3c2C(=O)NC3)cc1` [Compound I-230, 2-(2,6-difluorophenyl)-4-((4-methoxyphenyl)amino)-6,7-dihydro-5H-pyrrolo[3,4-b]pyridin-5-one] are less than 10 nM and 100 to 1000 nM.
Take `NC(=O)c1cc(F)c(-c2cc(Nc3ccc(N4CCOCC4)cn3)c3c(n2)CNC3=O)c(F)c1` [Compound I-250, 3,5-difluoro-4-(4-((5-morpholinopyridin-2-yl)amino)-5-oxo-6,7-dihydro-5H-pyrrolo[3,4-b]pyridin-2-yl)benzamide]: the Ki at TYK2 is 10 to 100 nM; on JAK2 it was 100 to 1000 nM.
`CC1(C)CN(c2ccc(Nc3cc(-c4c(F)cccc4F)nc4c3C(=O)NC4)nc2)CC[C@H]1O` [Compound I-268, (R)-2-(2,6-difluorophenyl)-4-((5-(4-hydroxy-3,3-dimethyl-piperidin-1-yl)pyridin-2-yl)amino)-6,7-dihydro-5H-pyrrolo[3,4-b]pyridin-5-one]: the figures for the Ki at TYK2 and on JAK2 were less than 10 nM and 10 to 100 nM, respectively.

One may read the Ki as a measure of affinity in units of concentration, obtained from inhibition or displacement.
